Source: US20130156795A1, “METHODS FOR INHIBITION OF CELL PROLIFERATION, SYNERGISTIC TRANSCRIPTION MODULES AND USES THEREOF” (priority 2009, published 2013)
“Also recorded” adds a separate entry of the source. Like-named read-outs stand apart in the source and are kept apart here.

Columns and labels:
T98G glioma cell line = assay: ZNF238 and ZNF238-target mRNA expression by quantitative PCR in T98G cells; assay type: cell-based, human
Method: FIG. 12A, Graphical representation of the promoter of ZNF238. The region between −1800 and −3400 contains stretches of CpG islands. FIG. 12B, 5-Azacytidine induces expression of ZNF238. T98G cells were treated with 5-Azacytidine at the indicated concentrations for 3 days. Expression of ZNF238 was analyzed by quantitative PCR. […] HPRT was used as control for normalization.
Computational and expression predictions converged towards the identification of a highly vulnerable structure of the regulatory region controlling ZNF238 expression. The ZNF238 promoter/enhancer is unusually rich in evolutionarily conserved CpG islands (FIG. 12A), which are targeted by DNA methyltransferases leading to gene expression silencing. Methylation of regulatory DNA regions is a common mechanism in human cancer and is implicated in the constitutive silencing of tumor suppressor genes in malignant glioma (109; herein incorporated by reference in its entirety). Thus, whether promoter methylation induces silencing of ZNF238 was considered. Pharmacological inhibition of methylation with an inhibitor of DNA methyltransferases (5-Azacytidine) elevated the expression of ZNF238 mRNA in the T98G glioma cell line (FIG. 12B) and repressed the expression of SerpineH1 and CH3IRL1 (FIG. 12C), two mesenchymal genes predicted as ZNF238 targets by ARACNe (FIG. 1).

[1] = system: C/EBPbeta-luciferase reporter; assay: C/EBPbeta-luciferase reporter screen in SNB19 glioma cells; assay type: cell-based, human
Method: SNB19 human glioma cells were stably transfected with the C/EBPbeta-driven luciferase plasmid (FIG. 36). Several clones were isolated and propagated. […] Cells were transfected with control siRNAs or siRNA oligonucleotides targeting C/EBPbeta (for example, SEQ ID NO: 228 or SEQ ID NO: 229). The control siRNA sequence is the Dharmacon ON-TARGETpIus Non-targeting Pool (Cat#: D-001810-10-20). Luciferase activity was measured on a luminometer and the results are shown after normalization with renilla.
A multimerized C/EBPbeta-luciferase reporter was stably introduced in SNB19 and a screening of ˜9,800 compounds was done to identify positive candidates.

phospho-STAT3 = assay: Inhibition of active STAT3 (phospho-STAT3); assay type: cell-based, human
GBM-BTICs and SNB19 = assay: qRT-PCR of C/EBPβ and Stat3 mRNA after lentivirus-mediated shRNA silencing; assay type: cell-based, human
Method: For loss-of-function experiments, lentivirus-mediated shRNA silencing of C/EBPβ and Stat3 in the human glioma cell line SNB19 and in early-passage cultures of tumor cells derived from primary GBM was performed. The latter were grown in serum-free conditions, in the presence of the growth factors bFGF and EGF. These culture conditions preserve the tumor stem cell-like features of GBM-derived cells and propel the formation of GBM-like tumors after intracranial transplantation in immunodeficient mice {Lee, 2006; herein incorporated by reference in its entirety} (GBM-derived brain tumor initiating cells, GBM-BTICs, see FIG. 22 for the analysis of their tumor-initiating capacity). At least three replicates for each condition were produced and a global dataset of 89 individual samples was generated, including 55 knockdown experiments in human glioma cells and 34 ectopic expression experiments in mouse NSCs. Gene expression profiles of human samples were produced with the HT-12v3 Illumina BeadArrays (including 24,385 human genes), while murine samples were profiled on mouse-6V2 Illumina BeadArrays (including 20,311 mouse genes). 14,857 murine genes were mapped to human orthologs, using the homologene database (http://www.ncbi.nlm.nih.gov/homologene; herein incorporated by reference in its entirety). Of the 149 genes in the MGES, 118 could be mapped to murine genes represented on the mouse-6V2 array.
Reciprocal changes followed ectopic expression of the two TFs in C17.2 and NSC cells (Table 10) qRT-PCR values and microarray-based measurements were highly correlated for Stat3 but not for C/EBPβ mRNA (FIG. 24). Moreover, the Stat3C and C/EBPβ constructs used in the ectopic expression experiments in mouse NSCs lack the 3′ UTR sequence targeted by the Illumina probes. Thus, the qRT-PCR values for C/EBPβ and Stat3 were used, rather than the microarray measurements, as more accurate read-outs for their mRNA expression across the 89 samples.
RNA was prepared with RiboPure kit (Ambion), and used for first strand cDNA synthesis using random primers and SuperScriptll Reverse Transcriptase (Invitrogen). QRT-PCR was performed using Power SYBR Green PCR Master Mix (Applied Biosystems). QRT-PCR results were analyzed by the ΔΔCT method (Livak & Schmittgen, Methods 25:402, 2001; herein incorporated by reference in its entirety) using GAPDH or 18S as housekeeping genes.
Lentiviral expression vectors carrying shRNAs were purchased from Sigma. To generate lentiviral particles, each shRNA expression plasmid was co-transfected with pCMV-dR8.91 and pCMV-MD2.G vectors into human embryonic kidney 293T cells using Fugene 6 (Roche). Lentiviral infections were performed as described {Zhao, 2008; herein incorporated by reference in its entirety}.

SNB19 glioma cells = assay: Intracranial xenograft of shRNA-transduced SNB19 glioma cells in immunocompromised mice; assay type: in vivo, mouse; conditions: SNB19 xenografted into striatum, 120 days from injection
Method: Next, it was considred whether loss of C/EBPβ and Stat3 in glioma cells reduced tumor aggressiveness in vitro and in vivo. […] Then, the impact of C/EBPβ and Stat3 knockdown for brain tumorigenesis in vivo was determined. SNB19 cells transduced with non-targeting control shRNA lentivirus or shRNA targeting C/EBPβ and/or Stat3 were xenografted into the striatum of immunocompromised mice. […] However, only one of four mice from the shC/EBPβ and one of five mice from the shC/EBPβ+shStat3 groups developed tumors after 120 days from the injection (FIG. 22B). […] Conversely, the single tumor in the shC/EBPβ+shStat3 group grew well circumscribed and was less angiogenic.
Intracranial injection of SNB19 glioma cell line and GBM-derived BTICs was performed in 6-8 weeks NOD/SCID mice (Charles River laboratories) in accordance with guidelines of the International Agency for Reserch on Cancer's Animal Care and Use Committee. Briefly, 48 h after lentiviral infection, 2×10^5 SNB19 or 3×10^5 BTICs were injected 2 mm lateral and 0.5 mm anterior to the bregma, 3 mm below the skull. Mice were monitored daily and sacrificed when neurological symptoms appeared. Kaplan-Meier survival curve of the mice injected with SNB19 glioma cells was generated using the DNA Statview software package (AbacusConcepts, Berkeley Calif.).

[2] = system: SNB19 human glioma cell line; assay: Gene expression profiling and GSEA after shRNA silencing of MR-TFs in SNB19; assay type: cell-based; conditions: shRNA knock-down in human glioma cells; for Enrichment of ATF2 regulon on TF-knock-down gene expression profile by GSEA, nES: Control TF regulon ATF2 (negative control), size 386; for Enrichment of SOX15 regulon on TF-knock-down gene expression profile by GSEA, nES: Control TF regulon SOX15 (negative control), size 213; for Enrichment of ZNF277 regulon on TF-knock-down gene expression profile by GSEA, nES: Control TF regulon ZNF277 (negative control), size 238; for Enrichment of ZNF500 regulon on TF-knock-down gene expression profile by GSEA, nES: Control TF regulon ZNF500 (negative control), size 469; for Enrichment of the MGES on genes downregulated after MR-TF knock-down, nES: MGES Enrich.; for Enrichment of C/EBPβ regulon on TF-knock-down gene expression profile by GSEA, nES: Module TF regulon C/EBPβ, size 209; for Enrichment of FosL2 regulon on TF-knock-down gene expression profile by GSEA, nES: Module TF regulon FosL2, size 403; for Enrichment of Runx1 regulon on TF-knock-down gene expression profile by GSEA, nES: Module TF regulon Runx1, size 490; for Enrichment of Stat3 regulon on TF-knock-down gene expression profile by GSEA, nES: Module TF regulon Stat3, size 366; for Enrichment of bHLH-B2 regulon on TF-knock-down gene expression profile by GSEA, nES: Module TF regulon bHLH-B2, size 226
Source text: To test whether specific gene signatures were globally differentially regulated, we used the Gene Set Enrichment analysis method (A31; herein incorporated by reference in its entirety). In this method, the Kolmogorov-Smirnoff test is used to determine whether two gene lists are statistically correlated. In this case, one list includes genes on the microarray expression profile dataset, ranked by their differential expression statistics across two conditions (e.g. ectopically expressed Stat3C/C/EBPβ vs. control), from most over- to most underexpressed. The other list contains non-ranked genes in a specific signature (e.g. mesenchymal). This is very useful to detect, for instance, situations where signature genes can be differentially expressed as a whole, even though the fold-change can be small for each gene in isolation. In this case, a gene-by-gene test, such as a T-test, cannot reveal statistical significance. The algorithm was set to implement weighted scoring scheme and the enrichment score significance was assessed by 1000 permutation tests.
Next, lentivirus-mediated shRNA silencing of the five TFs (C/EBPβ, Stat3, bHLH-B2, FosL2, and Runx1) was performed in the SNB19 human glioma cell line, followed by gene expression profiling using HT-12v3 Illumina BeadArrays in triplicate.
RNA amplification for Array analysis was performed with Illumina TotalPrep RNA Amplification Kit (Ambion). 1.5 μg of amplified RNA was hybridized on Illumina HumanHT-12v3 or MouseWG-6 expression BeadChip according to the manufacturer's instructions. Hybridization data was obtained with an iScan BeadArray scanner (Illumina) and pre-processed by variance stabilization and robust spline normalization implemented in the lumi package under the R-system (Du, P., Kibbe, W. A. and Lin, S. M., (2008) ‘lumi: a pipeline for processing Illumina microarray’, Bioinformatics 24(13):1547-1548; herein incorporated by reference in its entirety).

Row | Molecule | C/EBPβ mRNA level relative to non-target shRNA transduced cells (fold ratio, median ± MAD) (GBM-BTICs and SNB19) | Stat3 mRNA level relative to non-target shRNA transduced cells (fold ratio, median ± MAD) (GBM-BTICs and SNB19) | mice that developed tumors (SNB19 glioma cells) | Enrichment of ATF2 regulon on TF-knock-down gene expression profile by GSEA, nES [2] | Enrichment of SOX15 regulon on TF-knock-down gene expression profile by GSEA, nES [2] | Enrichment of ZNF277 regulon on TF-knock-down gene expression profile by GSEA, nES [2] | Enrichment of ZNF500 regulon on TF-knock-down gene expression profile by GSEA, nES [2] | Enrichment of the MGES on genes downregulated after MR-TF knock-down, nES [2] | Enrichment of C/EBPβ regulon on TF-knock-down gene expression profile by GSEA, nES [2] | Enrichment of FosL2 regulon on TF-knock-down gene expression profile by GSEA, nES [2] | Enrichment of Runx1 regulon on TF-knock-down gene expression profile by GSEA, nES [2] | Enrichment of Stat3 regulon on TF-knock-down gene expression profile by GSEA, nES [2] | Enrichment of bHLH-B2 regulon on TF-knock-down gene expression profile by GSEA, nES [2] | other results
1 | Nc1ncn([C@@H]2O[C@H](CO)[C@@H](O)[C@H]2O)c(=O)n1 [5-Azacytidine] | – | – | – | – | – | – | – | – | – | – | – | – | – | expression of CH3IRL1 (T98G glioma cell line): repressed; expression of SerpineH1 (T98G glioma cell line): repressed; expression of ZNF238 mRNA (T98G glioma cell line; 3 days, quantitative PCR): induces; also recorded: elevated; Expression of selected ZNF238 targets (T98G glioma cell line; HPRT normalization (FIG. 12C)): down-regulated
2 | O=c1[nH]cc(F)c(=O)[nH]1 [5-fluorouracil] | – | – | – | – | – | – | – | – | – | – | – | – | – | inhibition of C/EBPb activity, C/EBPb gene reporter assay ([1]; reporter activity at 48 hr, various dosages (FIG. 38A, 39A)): inhibition
3 | COc1cc([C@@H]2c3cc4c(cc3[C@@H](O[C@@H]3O[C@@H]5CO[C@@H](C)O[C@H]5[C@H](O)[C@H]3O)[C@H]3COC(=O)[C@H]23)OCO4)cc(OC)c1O [etoposide] | – | – | – | – | – | – | – | – | – | – | – | – | – | inhibition of CCAAT/enhancer-binding protein (CEBP) luciferase reporter ([1]; pilot screen, microsource library (2000 compounds), SNB19): inhibit; inhibition of the active form of STAT3 (phospho-STAT3) (phospho-STAT3): inhibit
4 | shC/EBPβ: lentiviral shRNA specific for C/EBPβ purchased from Sigma (TRCN0000007442, SEQ ID NO: 225) (CCGGCGACTTCCTCTCCGACCTCTTCTCGAGAAGAGGTCGGAGAGGAAGTCGTTTTT) | 0.26 ± 0.119 | 1.13 ± 0.43 | one of four | 1.54 | 0.28 | −0.79 | −0.24 | 3.23 | 1.91 | 3.83 | 0.55 | 2.49 | 1.74 | C/EBPβ mRNA level relative to non-target shRNA transduced cells (fold ratio, median ± MAD) (GBM-BTICs and SNB19; listed as C/EBPβ shRNA): 0.26
5 | shStat3: lentiviral shRNA specific for Stat3 purchased from Sigma (TRCN0000020843, SEQ ID NO: 224) (CCGGGCAAAGAATCACATGCCACTTCTCGAGAAGTGGCATGTGATTCTTTGCTTTTT) | 0.87 ± 0.111 | 0.205 ± 0.052 | all mice | −0.24 | −2.81 | −0.55 | 0.20 | 3.59 | 2.43 | 4.98 | 2.41 | 1.78 | 0.59 | Stat3 mRNA level relative to non-target shRNA transduced cells (fold ratio, median ± MAD) (GBM-BTICs and SNB19; listed as Stat3-shRNA): 0.205
